The values below come from patent US7576107B2 (dated 2009).

By melting point is commonly meant the temperature, or range, at which the solid turns liquid.

SMILES strings stand for the structures.

Consider `COCCNc1c(S(=O)(=O)C(F)(F)F)c(C#N)nn1-c1c(Cl)cc(C(F)(F)F)cc1Cl`, for which the melting point is 164 °C.
